Results: article PMC8041284, “Tunable Methacrylamides for Covalent Ligand Directed Release Chemistry” (Journal of the American Chemical Society, 2021)
Where a SMILES comes first, the peptide text is derived from it. Bridges are numbered along the chain shown (N, C = ends). [ ]: non-standard residue; d: D form. The star is where a group is joined. Ileψ(thiazoline)Cys = CC[C@H](C)[C@H](N)C1=N[C@H](C(=O)*)CS1; dOrn = NCCC[C@@H](N)C(=O)O; Cbz = O=C(OCc1ccccc1)*

molecular target: BTK (Homo sapiens, UniProt Q06187); experiment: biochemical; conditions: read-out: BTK inhibition (%)
Sequence (Q06187 402-655 limits assumed): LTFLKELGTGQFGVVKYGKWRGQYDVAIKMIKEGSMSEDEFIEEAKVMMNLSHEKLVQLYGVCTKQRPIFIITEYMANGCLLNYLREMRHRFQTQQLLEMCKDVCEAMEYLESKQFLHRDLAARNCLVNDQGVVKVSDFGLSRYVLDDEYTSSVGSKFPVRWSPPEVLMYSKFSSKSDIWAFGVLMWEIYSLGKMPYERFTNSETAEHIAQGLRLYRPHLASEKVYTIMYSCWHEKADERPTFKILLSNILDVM

Going from `O=c1ccc2ccc3occc3c2o1` [PCM-0214995] to `C[C@@]12C[C@@H](c3ccoc3)OC(=O)[C@@H]1CC[C@]1(C)[C@H]2[C@@H]2C=C[C@@]1(O)C(=O)O2` [PCM-0216442], the inhibition at 10 µM rises from -19.3% to 0%.

`CC(=O)O[C@H]1CC[C@H]2[C@@H]3CCC4=CC(=O)CCC4=C3C=C[C@]12C` [PCM-0215062] was tested, and the inhibition at 10 µM was 2.3%.

same assay, conditions: read-out: BTK inhibition (%), 0.75 uM BTK, […] probe 3l, 15 min preincubation

Going from `C[C@H]1[C@H](C)CC[C@]2(C(=O)O[C@@H]3O[C@H](CO[C@@H]4O[C@H](CO)[C@@H](O[C@@H]5O[C@@H](C)[C@H](O)[C@@H](O)[C@H]5O)[C@H](O)[C@H]4O)[C@@H](O)[C@H](O)[C@H]3O)CC[C@]3(C)C(=CC[C@@H]4[C@@]5(C)C[C@@H](O)[C@H](O)[C@@](C)(CO)[C@@H]5[C@H](O)C[C@]43C)[C@H]12` [PCM-0215102] to `COc1ccc(-c2oc3c(CC=C(C)C)c(O[C@@H]4O[C@H](CO)[C@@H](O)[C@H](O)[C@H]4O)cc(O)c3c(=O)c2O[C@@H]2O[C@@H](C)[C@H](O)[C@@H](O)[C@H]2O)cc1` [PCM-0094858], the inhibition at 10 µM falls from 10.1% to -0.8%.

Going from `Cn1c(=O)c2c(ncn2CC(O)CO)n(C)c1=O` (stereo not shown) [PCM-0085824] to `CC(C)[C@H](N)C(=O)OCC(CO)OCn1cnc2c(=O)[nH]c(N)nc21` (stereo partly shown) [PCM-0214750], the inhibition at 10 µM falls from 0.8% to -2.3%.

Compared with `COc1cc(N2CCC(N)CC2)ccc1Nc1ncc(Cl)c(-c2c[nH]c3ccccc23)n1` [PCM-0215211], `Fc1ccc(Cl)cc1-c1nc(Nc2ccncc2)c2nccnc2n1` [PCM-0215428] is lower in inhibition at 10 µM: 95.9% for the first, -17% for the second.

First: Cc1cn(CCN2CCN(c3ccccc3-c3cc(C#N)cc(C(=O)NCCCN4CCCC4)c3)CC2)c2ccccc12 [PCM-0215709]
Second: CNCc1ccc(C)c(NC(=O)c2ccc(Nc3nc(-c4ccccc4)c4ccccc4n3)cc2)c1 [PCM-0095748]
The inhibition at 10 µM of the first is lower: 27% for the first, 79.5% for the second.

Going from `COc1cc(C)c2c(=O)c(-c3ccccc3)coc2c1` [PCM-0216420] to `COc1ccc(/C=C/c2cc(OC)cc(=O)o2)cc1` [PCM-0216316], the inhibition at 10 µM falls from 32.4% to -2.3%.

Going from `Cc1cccc(C)c1OCC(=O)N[C@@H](Cc1ccccc1)[C@@H](O)C[C@H](Cc1ccccc1)NC(=O)[C@H](C(C)C)N1CCCNC1=O` [PCM-0214618] to `Cc1cc2c(C(=O)NC[C@H](C)c3ccccc3)c(O)c(O)cc2c(O)c1-c1c(C)cc2c(C(=O)NC[C@H](C)c3ccccc3)c(O)c(O)cc2c1O` [PCM-0215358], the inhibition at 10 µM rises from -21.8% to 113%.

Going from `CC[C@]1(O)C[C@H]2CN(CCc3c([nH]c4ccccc34)[C@@](C(=O)OC)(c3cc4c(cc3OC)N(C=O)[C@H]3[C@@](O)(C(=O)OC)[C@H](OC(C)=O)[C@]5(CC)C=CCN6CC[C@]43[C@@H]65)C2)C1` [PCM-0214794] to `CC(=O)O[C@]1(C(C)=O)CC[C@H]2[C@@H]3CCC4=CC(=O)CCC4=C3[C@@H](c3ccc(N(C)C)cc3)C[C@@]21C` [PCM-0095563], the inhibition at 10 µM rises from 9% to 38.9%.

Going from `CC(=O)N[C@@H]1[C@@H](O[C@@H]2O[C@H](C(=O)O)[C@@H](O)[C@H](O)[C@H]2O)[C@@H](O)[C@@H](OS(=O)(=O)O)O[C@H]1O` [PCM-0215884] to `COc1cc([C@H]2OC[C@H]3[C@@H]2CO[C@@H]3c2ccc(O[C@@H]3O[C@H](CO)[C@@H](O)[C@H](O)[C@H]3O)c(OC)c2)ccc1O[C@@H]1O[C@H](CO)[C@@H](O)[C@H](O)[C@H]1O` [PCM-0216471], the inhibition at 10 µM rises from -22.1% to -6.9%.

Compared with `CSCC1CN(/N=C/c2ccc([N+](=O)[O-])o2)C(=O)O1` (stereo not shown) [PCM-0216228], `Cc1cc(=O)oc2cc(O)ccc12` [PCM-0011565] is lower in inhibition at 10 µM: 20.7% for the first, -2.3% for the second.

First: COC(=O)c1ccc(O)c(OC)c1 [PCM-0214879]
Second: COc1ccc(CC(=O)O)cc1OC [PCM-0214949]
The inhibition at 10 µM of the first is lower: -12.5% for the first, -0.8% for the second.

Compared with `CN(NC(=O)CC(=O)NN(C)C(=S)c1ccccc1)C(=S)c1ccccc1` [PCM-0094978], `CC1(C)S[C@@H]2[C@H](NC(=O)C(c3ccccc3)S(=O)(=O)O)C(=O)N2[C@H]1C(=O)O` (stereo partly shown) [PCM-0216099] is higher in inhibition at 10 µM: -6.9% for the first, 7.7% for the second.

Going from `O[C@@H](COc1cccc2ncccc12)CN1CCN(C2c3ccccc3[C@@H]3[C@H](c4ccccc42)C3(F)F)CC1` (stereo partly shown) [PCM-0095161] to `Nc1ccc2ncnc(NCCc3ccc(Oc4ccccc4)cc3)c2c1` [PCM-0095674], the inhibition at 10 µM falls from 103% to -4.1%.

Compared with `CC(=O)OC(C)(C)CCC(=O)[C@](C)(O)[C@H]1[C@H](O)C[C@@]2(C)[C@@H]3CC=C4[C@@H](C[C@H](O)[C@@H](O)C4(C)C)[C@]3(C)C(=O)C[C@]12C` [PCM-0214543], `C[C@H](CC(=O)C[C@@H](C)[C@H]1C[C@H](O)[C@@]2(C)C3=C(C(=O)C[C@]12C)[C@@]1(C)CCC(=O)C(C)(C)[C@@H]1C[C@@H]3O)C(=O)O` [PCM-0214862] is higher in inhibition at 10 µM: -13.8% for the first, -6.2% for the second.

Compared with `COc1cc2oc(=O)ccc2cc1O` [PCM-0216502], `O=C1c2cccc(O)c2C(=O)c2c(O)cc(CO)cc21` [PCM-0095288] is higher in inhibition at 10 µM: -10% for the first, 16.3% for the second.

Going from `COc1cc(OC)c(/C=C/S(=O)(=O)Cc2ccc(OC)c(NCC(=O)O)c2)c(OC)c1` [PCM-0094976] to `COc1cc2ncnc(Oc3ccc(CC(=O)Nc4cnn(C(C)C)c4)cc3)c2cc1OC` [PCM-0215465], the inhibition at 10 µM falls from -2.1% to -11.7%.

Going from `O=c1[nH]cnc2c1ncn2[C@H]1C[C@H](O)[C@@H](CO)O1` [PCM-0214983] to `Cc1cccc(Nc2cc(Cl)nc(SCC(=O)O)n2)c1C` [PCM-0095617], the inhibition at 10 µM rises from 0% to 7.7%.

`C[C@H](CCC(=O)O)[C@H]1CC[C@H]2[C@@H]3CC[C@@H]4C[C@H](O)CC[C@]4(C)[C@H]3CC[C@]12C` [PCM-0214742] and `C#C[C@]1(O)CC[C@H]2[C@@H]3CCc4cc(OC5CCCC5)ccc4[C@H]3CC[C@@]21C` [PCM-0214893] are the same in inhibition at 10 µM: -8.6% for the first, -8.6% for the second.

Going from `O=C(O)CCn1c2c(c3ccccc31)C[C@H](NS(=O)(=O)c1ccc(F)cc1)CC2` [PCM-0101878] to `CC#CCn1c(N2CCC[C@@H](N)C2)nc2c1c(=O)n(Cc1nc(C)c3ccccc3n1)c(=O)n2C` [PCM-0090431], the inhibition at 10 µM rises from -15.4% to -3.1%.

First: CC(C)NCC(O)c1ccc(NS(C)(=O)=O)cc1 (stereo not shown) [PCM-0065402]
Second: CC(C)NCC(O)COc1ccc(COCCOC(C)C)cc1 (stereo not shown) [PCM-0064988]
The inhibition at 10 µM of the first is higher: -16.3% for the first, -31.9% for the second.

Going from `CC[C@H](C)[C@H](N)C1=N[C@H](C(=O)N[C@@H](CC(C)C)C(=O)N[C@H](CCC(=O)O)C(=O)N[C@H](C(=O)N[C@H]2CCCCNC(=O)[C@H](CC(N)=O)NC(=O)[C@@H](CC(=O)O)NC(=O)[C@H](Cc3cnc[nH]3)NC(=O)[C@@H](Cc3ccccc3)NC(=O)[C@H]([C@@H](C)CC)NC(=O)[C@@H](CCCN)NC2=O)[C@@H](C)CC)CS1` [PCM-0215200] ({Ileψ(thiazoline)Cys}-L[dE]IK[dOrn]I[dF]H[dD]N; lactam 4-C) to `CC(C)C[C@@H](C=O)NC(=O)[C@H](CC(C)C)NC(=O)[C@H](CC(C)C)NC(=O)OCc1ccccc1` [PCM-0095809] (Cbz-Leu-Leu-Leu-aldehyde), the inhibition at 10 µM rises from -27.2% to 5.4%.

Compared with `CN(CCNCc1cn(Cc2ccc(Cl)cc2)nn1)CCNc1ccnc2cc(Cl)ccc12` [PCM-0215895], `CCOC(=O)c1[nH]c2cc(Cl)ccc2c1C(C(=O)NC(C)(C)C)N(C=O)Cc1ccc(Cl)cc1` (stereo not shown) [PCM-0095744] is higher in inhibition at 10 µM: -10.8% for the first, 13.1% for the second.

Compared with `Nc1nc(N)c2nc(-c3cccc(O)c3)cnc2n1` [PCM-0095537], `CC(C)Nc1cc(-c2c[nH]c(C(=O)N[C@H](CO)c3cccc(Cl)c3)c2)c(Cl)cn1` [PCM-0215481] is higher in inhibition at 10 µM: -35.7% for the first, 78.6% for the second.

Going from `O=C1CC(c2c[nH]c3ccc(F)cc23)C(=O)N1` (stereo not shown) [PCM-0215900] to `O=C(O)/C(S)=C/c1c[nH]c2ccc(F)cc12` [PCM-0215343], the inhibition at 10 µM rises from -5.4% to 35.5%.

Compared with `Cc1ccc2nc(CN(CCN(Cc3nc4ccc(C)cc4[nH]3)Cc3nc4ccc(C)cc4[nH]3)Cc3nc4ccc(C)cc4[nH]3)[nH]c2c1` [PCM-0215616], `Cc1ccc(NC(=O)c2ccc(CN3CC[C@H](N(C)C)C3)c(C(F)(F)F)c2)cc1Nc1nccc(-c2cncnc2)n1` [PCM-0214863] is lower in inhibition at 10 µM: 95.8% for the first, 36.6% for the second.

Going from `CCC[C@H](N[C@H]1CCc2cc(F)cc(F)c2C1)C(=O)Nc1cn(C(C)(C)CNCC(C)(C)C)cn1` [PCM-0215524] to `COc1c(N2CCNC(C)C2)c(F)cc2c(=O)c(C(=O)O)cn(C3CC3)c12` (stereo not shown) [PCM-0086315], the inhibition at 10 µM falls from -3.9% to -40.5%.

Going from `Cc1onc(-c2c(Cl)cccc2Cl)c1C(=O)N[C@@H]1C(=O)N2[C@@H]1SC(C)(C)[C@@H]2C(=O)O` [PCM-0214747] to `CN[C@@H](C)C(=O)N[C@H](C(=O)N1CCC[C@H]1C(=O)Nc1snnc1-c1ccccc1)C1CCCCC1` [PCM-0215217], the inhibition at 10 µM falls from 9.3% to -17%.

First: CSCC[C@H](N)C(=O)O [PCM-0216223]
Second: CC(=O)CCc1ccc(OC(C)=O)cc1 [PCM-0216104]
The inhibition at 10 µM of the first is higher: -0.9% for the first, -10.8% for the second.

First: CC[C@H](C)C(=O)O[C@H]1C[C@H](O)C=C2C=C[C@H](C)[C@H](CC[C@@H](O)C[C@@H](O)CC(=O)O)[C@H]21 [PCM-0214717]
Second: CCc1c(Cl)c(O)c(Cl)c(O)c1C(=O)O[C@H]1[C@H](O)[C@H](OC)[C@H](OC/C2=C\C=C\C[C@H](O)/C(C)=C/[C@H](CC)[C@@H](O[C@@H]3OC(C)(C)[C@@H](OC(=O)C(C)C)[C@H](O)[C@@H]3O)/C(C)=C/C(C)=C/C[C@@H]([C@@H](C)O)OC2=O)O[C@@H]1C [PCM-0214774]
The inhibition at 10 µM of the first is lower: -3.1% for the first, 45.9% for the second.

Compared with `CC(c1cc2ccccc2s1)N(O)C(N)=O` (stereo not shown) [PCM-0086421], `CC(=O)OCC(=O)NCCCOc1cccc(CN2CCCCC2)c1` [PCM-0086003] is lower in inhibition at 10 µM: -0.7% for the first, -3.4% for the second.

Going from `CC(C)Oc1ccc(-c2nc(-c3cccc4c3CC[C@@H]4NCCO)no2)cc1C#N` [PCM-0215588] to `O=C(O[C@@H]1Cc2c(O)cc(O)cc2O[C@H]1c1cc(O)c(O)c(O)c1)c1cc(O)c(O)c(O)c1` [PCM-0216357], the inhibition at 10 µM rises from -5.5% to 40.9%.

`O=CC1OC(=O)c2cc(O)c(O)c(O)c2-c2c(cc(O)c(O)c2O)C(=O)OC1C1OC(=O)c2cc(O)c(O)c(O)c2-c2c(O)c(O)c3oc(=O)c4c(c(O)c(O)c5oc(=O)c2c3c54)-c2c(cc(O)c(O)c2O)C(=O)OCC1O` (stereo not shown) [PCM-0216414] was tested, and the inhibition at 10 µM was 27%.
